Values joined by “and” are separate entries in the source; they are usually repeats but may differ in a detail not shown here. Equal entries are not always repeated. Toxic doses and inconclusive results are not listed. No stated cut-off is given here; in the data, active means T/C of 150% or more; inactive means T/C below 125%.
System: L1210 leukemia ip in BDF1 mice, survival T/C
Test: NCI In Vivo Anticancer Drug Screen. Data for tumor model L1210 Leukemia (intraperitoneal) in B6D2F1 (BDF1) mice
Details: endpoint: mean survival time, higher = longer survival
How it was run: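 Antitumor effect is assessed in tumor-bearing animals. Survival in the compound arm is compared with a vehicle-dosed control arm and expressed as their quotient.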

[1] = dose: 30.0 mg/kg/injection, schedule: Q01DX Z (ip), vehicle: saline
[2] = dose: 100.0 mg/kg/injection, schedule: Q04DX002 (ip), vehicle: saline
[3] = dose: 200.0 mg/kg/injection, schedule: Q04DX002 (ip), vehicle: saline
[4] = dose: 100.0 mg/kg/injection, schedule: Q01DX009 (ip), vehicle: saline
[5] = dose: 200.0 mg/kg/injection, schedule: Q01DX009 (ip), vehicle: saline
[6] = dose: 400.0 mg/kg/injection, schedule: Q01DX009 (ip), vehicle: saline
[7] = dose: 100.0 mg/kg/injection, schedule: Q04DX003 (ip), vehicle: saline with Tween-80
[8] = dose: 100.0 mg/kg/injection, schedule: Q04DX003 (ip), vehicle: saline
[9] = dose: 50.0 mg/kg/injection, schedule: Q04DX002 (ip), vehicle: Klucel (hydroxypropylcellulose) (HPC)
[10] = dose: 100.0 mg/kg/injection, schedule: Q04DX002 (ip), vehicle: Klucel (hydroxypropylcellulose) (HPC)
[11] = dose: 200.0 mg/kg/injection, schedule: Q04DX002 (ip), vehicle: Klucel (hydroxypropylcellulose) (HPC)
[12] = dose: 400.0 mg/kg/injection, schedule: Q04DX002 (ip), vehicle: Klucel (hydroxypropylcellulose) (HPC)
[13] = dose: 100.0 mg/kg/injection, schedule: Q01DX009 (ip), vehicle: saline with Tween-80
[14] = dose: 200.0 mg/kg/injection, schedule: Q01DX009 (ip), vehicle: saline with Tween-80
[15] = dose: 400.0 mg/kg/injection, schedule: Q01DX009 (ip), vehicle: saline with Tween-80
[16] = dose: 100.0 mg/kg/injection, schedule: Q04DX003 (ip), vehicle: Klucel (hydroxypropylcellulose) (HPC)
[17] = dose: 200.0 mg/kg/injection, schedule: Q04DX003 (ip), vehicle: Klucel (hydroxypropylcellulose) (HPC)
[18] = dose: 400.0 mg/kg/injection, schedule: Q04DX003 (ip), vehicle: Klucel (hydroxypropylcellulose) (HPC)
[19] = dose: 100.0 mg/kg/injection, schedule: Q01DX001 (ip), vehicle: saline with Tween-80
[20] = dose: 100.0 mg/kg/injection, schedule: Q01DX001 (ip), vehicle: saline
[21] = dose: 200.0 mg/kg/injection, schedule: Q01DX001 (ip), vehicle: saline
[22] = dose: 200.0 mg/kg/injection, schedule: Q04DX003 (ip), vehicle: saline
[23] = dose: 400.0 mg/kg/injection, schedule: Q04DX003 (ip), vehicle: saline
[24] = dose: 25.0 mg/kg/injection, schedule: Q01DX009 (ip), vehicle: saline with Tween-80
[25] = dose: 50.0 mg/kg/injection, schedule: Q01DX009 (ip), vehicle: saline with Tween-80
[26] = dose: 400.0 mg/kg/injection, schedule: Q01DX001 (ip), vehicle: saline

Measured: T/C

CN=C(N/N=C(C)\C=N\NC(=NC)N(C)C)N(C)C
inactive: dose: 15.0 mg/kg/injection, schedule: Q01DX Z (ip), vehicle: saline 90 % of control | [1] 106 % of control | dose: 60.0 mg/kg/injection, schedule: Q01DX Z (ip), vehicle: saline 95 % of control and 98 % of control | dose: 120.0 mg/kg/injection, schedule: Q01DX Z (ip), vehicle: saline 97 % of control and 101 % of control | dose: 120.0 mg/kg/injection, schedule: Q01DX Z (oral), vehicle: saline 96 % of control | dose: 240.0 mg/kg/injection, schedule: Q01DX Z (ip), vehicle: saline 95 % of control | dose: 240.0 mg/kg/injection, schedule: Q01DX Z (oral), vehicle: saline 91 % of control | dose: 960.0 mg/kg/injection, schedule: Q01DX Z (oral), vehicle: saline 94 % of control

COC(=O)C1=C2c3ccccc3NC(=O)N2NC1C(=O)OC (configuration not stated)
inactive: dose: 50.0 mg/kg/injection, schedule: Q04DX002 (ip), vehicle: saline 108 % of control | [2] 90 % of control | [3] 90 % of control

C[C@@H]1C[C@@]2(C)C(=CC1=O)CC[C@@H]1C2=CC[C@@]2(C)[C@H]1CC[C@]2(C)O
inactive: [4] 100 % of control | dose: 100.0 mg/kg/injection, schedule: Q04DX003 (ip), vehicle: alcohol 103 % of control | [5] 100 % of control | dose: 200.0 mg/kg/injection, schedule: Q04DX003 (ip), vehicle: alcohol 103 % of control | [6] 100 % of control | dose: 400.0 mg/kg/injection, schedule: Q04DX003 (ip), vehicle: alcohol 97 % of control

CCOC(C(=O)OC1CCN(C)CC1)(c1ccccc1)c1ccccc1
inactive: dose: 25.0 mg/kg/injection, schedule: Q04DX003 (ip), vehicle: saline 97 % of control | dose: 50.0 mg/kg/injection, schedule: Q04DX003 (ip), vehicle: saline 96 % of control | [7] 93 % of control | [8] 97 % of control

CC(C)=NNc1ccc([N+](=O)[O-])cc1[N+](=O)[O-]
inactive: [9] 100 % of control | [10] 94 % of control and 107 % of control | [11] 102 % of control | [12] 100 % of control and 105 % of control

OCCc1ccccc1
inactive: [13] 96 % of control | [14] 100 % of control | [15] 99 % of control

COC1CCC=CO1 (configuration not stated)
inactive: dose: 13.3 mg/kg/injection, schedule: Q01DX Z (ip), vehicle: saline 93 % of control | dose: 20.0 mg/kg/injection, schedule: Q01DX Z (ip), vehicle: saline 105 % of control | [1] 109 % of control

Cc1cc(Sc2cc(C)[n+]([O-])c(C)c2)cc(C)[n+]1[O-]
inactive: [16] 103 % of control | [17] 100 % of control | [18] 114 % of control

COc1ccc(/C=N\NC(=O)CCCCC(=O)N/N=C\c2ccc(OC)cc2)cc1
inactive: dose: 100.0 mg/kg/injection, schedule: Q01DX001 (ip), vehicle: Klucel (hydroxypropylcellulose) (HPC) 106 % of control | dose: 200.0 mg/kg/injection, schedule: Q01DX001 (ip), vehicle: Klucel (hydroxypropylcellulose) (HPC) 98 % of control | dose: 400.0 mg/kg/injection, schedule: Q01DX001 (ip), vehicle: Klucel (hydroxypropylcellulose) (HPC) 91 % of control

CC(C)(CCCl)NCc1ccccc1
inactive: dose: 25.0 mg/kg/injection, schedule: Q01DX009 (ip), vehicle: saline 101 % of control | dose: 50.0 mg/kg/injection, schedule: Q01DX009 (ip), vehicle: saline 104 % of control | [4] 88 % of control | [8] 99 % of control

O=C1/C(=C\c2ccccc2)Oc2cc(O)c(O)cc21
inactive: [19] 98 % of control

CSC(=N)N
inactive: [20] 105 % of control | [4] 99 % of control | [2] 100 % of control | [8] 101 % of control | [21] 96 % of control | [5] 91 % of control | [3] 100 % of control | [22] 97 % of control | [6] 89 % of control | [23] 97 % of control

COC(=O)Cc1cc(=O)c2cc(C)ccc2[nH]1
inactive: dose: 50.0 mg/kg/injection, schedule: Q01DX009 (ip), vehicle: acetone 94 % of control | dose: 100.0 mg/kg/injection, schedule: Q01DX009 (ip), vehicle: acetone 101 % of control | [8] 94 % of control | dose: 200.0 mg/kg/injection, schedule: Q01DX009 (ip), vehicle: acetone 97 % of control | [22] 94 % of control | [23] 94 % of control

CN(C)C(=O)CCC(=O)O
inactive: [2] 103 % of control | [3] 97 % of control | dose: 400.0 mg/kg/injection, schedule: Q04DX002 (ip), vehicle: saline 97 % of control

O=C(O)CC(C(=O)O)c1ccccc1 (configuration not stated)
inactive: [7] 88 % of control | dose: 200.0 mg/kg/injection, schedule: Q04DX003 (ip), vehicle: saline with Tween-80 103 % of control | dose: 400.0 mg/kg/injection, schedule: Q04DX003 (ip), vehicle: saline with Tween-80 106 % of control

C1=C(c2ccccc2)N(C2CCCCCCC2)C(c2ccccc2)=CN1Cc1ccccc1
inactive: [10] 103 % of control | [11] 103 % of control | [12] 100 % of control

CCOC(=O)c1ccc(NCC#N)cc1
inactive: [24] 92 % of control | [25] 95 % of control | [19] 97 % of control | [13] 94 % of control | dose: 200.0 mg/kg/injection, schedule: Q01DX001 (ip), vehicle: saline with Tween-80 92 % of control | [14] 91 % of control | dose: 400.0 mg/kg/injection, schedule: Q01DX001 (ip), vehicle: saline with Tween-80 98 % of control | [15] 102 % of control

CC1(C)c2ccccc2N(CCCN)c2ccccc21
inactive: dose: 3.25 mg/kg/injection, schedule: Q01DX001 (ip), vehicle: saline 93 % of control | dose: 6.5 mg/kg/injection, schedule: Q01DX001 (ip), vehicle: saline 93 % of control | dose: 13.0 mg/kg/injection, schedule: Q01DX001 (ip), vehicle: saline 96 % of control | dose: 50.0 mg/kg/injection, schedule: Q01DX001 (ip), vehicle: saline 95 % of control | [20] 106 % of control

COc1ccc(/C(C)=N\NC(N)=O)cc1
inactive: [9] 111 % of control | [10] 105 % of control | [11] 94 % of control | [12] 99 % of control

CC(=O)c1ccc(O)c(CN(C2CCCCC2)C2CCCCC2)c1O
inactive: [20] 100 % of control | [21] 93 % of control | [26] 93 % of control

Cc1ccc([N+](=O)[O-])cc1NC(=O)NNC(=O)CNC(=O)Nc1ccc(F)cc1
inactive: [24] 94 % of control | [25] 86 % of control | [13] 100 % of control

CSc1nc(SC)c(Cl)c(C(Cl)Cl)n1
inactive: [16] 98 % of control | [17] 94 % of control | [18] 102 % of control

CC(=O)OC1CCCOC1OC(C)=O (configuration not stated)
inactive: [20] 99 % of control | [4] 106 % of control | [21] 100 % of control | [5] 100 % of control | [26] 94 % of control | [6] 95 % of control

CN(C)S(=O)(=O)c1ccc(NC(=O)OC(C)(c2ccccc2)C2CCCCC2)cc1 (configuration not stated)
inactive: [20] 100 % of control | [21] 100 % of control | [26] 97 % of control

Reference: PubChem BioAssay AID248 (DTP/NCI, 2004)
